From PMC6017735, “Novel Semisynthetic Derivatives of Bile Acids as Effective Tyrosyl-DNA Phosphodiesterase 1 Inhibitors” (Molecules : A Journal of Synthetic Chemistry and Natural …, 2018)
Several values for one entry are separate records, joined by “and”; a condition that tells them apart may be missing. Equal values may be shown once.

molecular target: T1, Tdp1 (Homo sapiens, UniProt Q9NUW8); experiment: not given; details: single- and double-stranded substrates of DNA; cited from earlier work
T1 construct: inferred from the pET 16B vector and the Ni-chelating resin) (N); made in house
T1 sequence (Q9NUW8 whole entry): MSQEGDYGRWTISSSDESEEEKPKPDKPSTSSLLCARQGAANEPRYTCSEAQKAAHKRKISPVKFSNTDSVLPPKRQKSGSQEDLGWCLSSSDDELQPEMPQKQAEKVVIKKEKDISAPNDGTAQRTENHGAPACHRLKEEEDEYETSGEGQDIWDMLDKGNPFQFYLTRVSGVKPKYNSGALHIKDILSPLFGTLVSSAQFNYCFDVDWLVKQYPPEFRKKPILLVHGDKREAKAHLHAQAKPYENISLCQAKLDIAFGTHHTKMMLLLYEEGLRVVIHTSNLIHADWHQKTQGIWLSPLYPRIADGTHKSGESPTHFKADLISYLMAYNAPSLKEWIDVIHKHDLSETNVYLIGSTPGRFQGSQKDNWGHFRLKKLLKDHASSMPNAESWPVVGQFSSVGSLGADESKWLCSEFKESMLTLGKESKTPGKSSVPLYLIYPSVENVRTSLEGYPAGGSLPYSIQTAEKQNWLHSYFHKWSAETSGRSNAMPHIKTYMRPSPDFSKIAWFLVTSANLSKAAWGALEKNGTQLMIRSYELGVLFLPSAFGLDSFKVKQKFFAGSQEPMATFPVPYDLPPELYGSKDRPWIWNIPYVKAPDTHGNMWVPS

| SMILES | Tdp1 inhibition |
| --- | --- |
| N=C(N)c1ccc(-c2ccc(-c3ccc(C(=N)N)cc3)o2)cc1 [Fur, furamidine] | low micromolar concentrations |

molecular target: T1, Tdp1; experiment: Real-time detection of Tdp1 activity with FAM-BHQ1 oligonucleotide biosensor; type: biochemical; details: IC50 (concentration that inhibits the activity of the enzyme by 50%), samples synthesized by the authors; 50 nM biosensor, 1.3 nM Tdp1, 26 °C
Source text: For testing, we used recently designed oligonucleotide biosensors for the real-time detection of Tdp1 activity based on the ability of Tdp1 to remove fluorophore quenchers from the 3′-end of DNA [27]. The hexadecameric oligonucleotide carried 5(6)-carboxyfluorescein (FAM) at the 5′-end and fluorophore quencher BHQ1 (Black Hole Quencher-1) at the 3′-end. Tdp1 inhibitors prevent the removal of fluorophore quenchers, thus reducing fluorescence intensity.
The recombinant Tdp1 was purified to homogeneity by chromatography on Ni-chelating resin and phosphocellulose P11 as described using the plasmid pET 16B-Tdp1 kindly provided by Dr. K.W. Caldecott (University of Sussex, United Kingdom).
Real-Time Detection of Tdp1 Activity. The Tdp1 activity measurements were carried out as described. Briefly, Tdp1-biosensor with a final concentration of 50 nM was incubated in a volume of 200 μL containing a Tdp1 buffer (50 mM Tris-HCl pH8.0, 50 mM NaCl, 7 mM β-mercaptoethanol) supplemented with purified 1.3 nM Tdp1 and various concentrations of the inhibitor in a 1.5% DMSO solution. Fluorescence measurements (Ex485/Em520 nm) were carried out during the linear phase of reaction (from 0 to 8 min) every 55 s. The reactions were incubated at a constant temperature of 26 °C in a POLARstar OPTIMA fluorimeter, BMG LABTECH, GmbH. The influence of compounds was evaluated by comparing the fluorescence increase rate in the presence of compounds to that of the DMSO control wells.

| SMILES | IC50 |
| --- | --- |
| Cc1ccc(NC(=O)CC[C@@H](C)[C@H]2CC[C@H]3[C@@H]4CC[C@@H]5C[C@H](O)CC[C@]5(C)[C@H]4C[C@H](O)[C@]23C)cc1 [Compound 6b, N-(p-Tolyl)-3α,12α-dihydroxy-5β-cholan-24-amide] | 7.6 ± 3.9 µM |
| CC(=O)OC1CCC2(C)C(CCC3C2CC(OC(C)=O)C2(C)C(C(C)CCC(=O)NCCc4cc(C(C)(C)C)c(O)c(C(C)(C)C)c4)CCC32)C1 (stereo not drawn) [Compound 9a, N-(2′′-(3′,5′-Di-tret-buthyl-4′-hydroxyphenyl)-ethyl)-3α,12α-diacetoxy-5β-cholan-24-amide] | 0.29 ± 0.12 µM |
| CC(=O)O[C@@H]1CC[C@@]2(C)[C@H](CC[C@@H]3[C@@H]2C[C@H](OC(C)=O)[C@]2(C)[C@@H]([C@H](C)CCC(=O)NCCCN4CCOCC4)CC[C@@H]32)C1 [Compound 11a, N-(3′-Morpholinopropyl)-3α,12α-diacetoxy-5β-cholan-24-amide] | > 15 µM |
| CC(=O)OC1CCC2(C)C(CCC3C2CC(O)C2(C)C(C(C)CCC(=O)NCCc4c[nH]c5ccccc45)CCC32)C1 (centres unmarked) [Compound 3d] | 0.48 ± 0.04 µM |
| C[C@H](CCC(=O)Nc1ccc(Br)cc1)[C@H]1CC[C@H]2[C@@H]3CC[C@@H]4C[C@H](O)CC[C@]4(C)[C@H]3C[C@H](O)[C@]12C [Compound 5b, N-(4′-Bromophenyl)-3α,12α-dihydroxy-5β-cholan-24-amide] | 1.3 ± 0.2 µM |
| CC(CCC(=O)NCCc1c[nH]c2ccccc12)C1CCC2C3C(O)CC4CC(O)CCC4(C)C3CCC12C (centres unmarked) [Compound 2b] | ~2.6 µM and 2.6 µM |
| CC(CCC(=O)NCCc1c[nH]c2ccccc12)C1CCC2C3CCC4CC(O)CCC4(C)C3CC(O)C12C (centres unmarked) [Compound 3b] | 2.7 ± 0.2 µM |
| CC(=O)O[C@@H]1CC[C@]2(C)C3C[C@H](OC(C)=O)[C@@]4(C)C(CC[C@@H]4[C@H](C)CCC(=O)NC45CC6CC(CC(C6)C4)C5)[C@@H]3CC[C@@H]2C1 (stereo partly drawn) [Compound 8a, N-(1′-Adamantyl)-3α,12α-diacetoxy-5β-cholan-24-amide] | 0.47 ± 0.08 µM |
| CC(=O)OC1CCC2(C)C(CCC3C2CC(OC(C)=O)C2(C)C(C(C)CCC(=O)NCCc4c[nH]c5ccccc45)CCC32)C1 (centres unmarked) [Compound 3a] | 0.65 ± 0.16 µM |
| CC(=O)O[C@@H]1CC[C@@]2(C)[C@H](CC[C@@H]3[C@@H]2C[C@H](OC(C)=O)[C@]2(C)[C@@H]([C@H](C)CCC(=O)Nc4ccc(Br)cc4)CC[C@@H]32)C1 [Compound 5a, N-(4′-Bromophenyl)-3α,12α-diacetoxy-5β-cholan-24-amide] | 0.42 ± 0.01 µM |
| CC(=O)OC1CCC2(C)C(C1)CC(OC(C)=O)C1C2CCC2(C)C(C(C)CCC(=O)NCCc3c[nH]c4ccccc34)CCC12 (centres unmarked) [Compound 1a] | 0.32 ± 0.11 µM |
| CC(=O)O[C@@H]1CC[C@@]2(C)[C@H](CC[C@@H]3[C@@H]2C[C@H](OC(C)=O)[C@]2(C)[C@@H]([C@H](C)CCC(=O)Nc4ccc(C)cc4)CC[C@@H]32)C1 [Compound 6a, N-(p-Tolyl)-3α,12α-diacetoxy-5β-cholan-24-amide] | 1 ± 0.05 µM |
| CC(=O)O[C@@H]1CC[C@@]2(C)[C@H](CC[C@@H]3[C@@H]2C[C@H](OC(C)=O)[C@]2(C)[C@@H]([C@H](C)CCC(=O)Nc4cccnc4)CC[C@@H]32)C1 [Compound 7a, N-(Pyridin-3-yl)-3α,12α-diacetoxy-5β-cholan-24-amide] | 4.08 ± 0.08 µM |
| CC(=O)O[C@@H]1CC[C@@]2(C)[C@H](CC[C@@H]3[C@@H]2C[C@H](OC(C)=O)[C@]2(C)[C@@H]([C@H](C)CCC(=O)Nc4ccccc4)CC[C@@H]32)C1 [Compound 4a, N-Phenyl-3α,12α-diacetoxy-5β-cholan-24-amide] | 0.43 ± 0.13 µM |
| CC(=O)OC1CC2C(CCC3CC(O)CCC32C)C2CCC(C(C)CCC(=O)NCCc3c[nH]c4ccccc34)C12C (centres unmarked) [Compound 3c] | 0.95 ± 0.05 µM |
| CC(=O)OC1CCC2(C)C(C1)CC(OC(C)=O)C1C2CCC2(C)C(C(C)CCC(=O)NCCc3c[nH]c4ccccc34)CCC12 (centres unmarked) [Compound 2a] | 0.38 ± 0.12 µM |
| C[C@H](CCC(=O)NC12CC3CC(CC(C3)C1)C2)[C@H]1CCC2[C@@H]3CC[C@@H]4C[C@H](O)CC[C@]4(C)C3C[C@H](O)[C@@]21C (stereo partly drawn) [Compound 8b, N-(1′-Adamantyl)-3α,12α-dihidroxy-5β-cholan-24-amide] | 2.3 ± 0.4 µM |
| CC(CCC(=O)NCCc1c[nH]c2ccccc12)C1CCC2C3C(O)CC4CC(O)CCC4(C)C3CCC12C (centres unmarked) [Compound 1b] | 2.65 ± 0.3 µM |
| C[C@H](CCC(=O)Nc1ccccc1)[C@H]1CC[C@H]2[C@@H]3CC[C@@H]4C[C@H](O)CC[C@]4(C)[C@H]3C[C@H](O)[C@]12C [Compound 4b, N-Phenyl-3α,12α-dihydroxy-5β-cholan-24-amide] | 6.7 ± 0.7 µM |
| C[C@H](CCC(=O)Nc1cccnc1)[C@H]1CC[C@H]2[C@@H]3CC[C@@H]4C[C@H](O)CC[C@]4(C)[C@H]3C[C@H](O)[C@]12C [Compound 7b, N-(Pyridin-3-yl)-3α,12α-dihydroxy-5β-cholan-24-amide] | > 15 µM |
| CCN(CC)CCCNC(=O)CC[C@@H](C)[C@H]1CCC2[C@@H]3CC[C@@H]4C[C@H](OC(C)=O)CC[C@]4(C)C3C[C@H](OC(C)=O)[C@@]21C (stereo partly drawn) [Compound 10a, N-(3′,3′-Diethylaminopropyl)-3α,12α-diacetoxy-5β-cholan-24-amide] | > 15 µM |

same assay, conditions: commercial sample of compound 1b (virtual screening hit); read-out: IC50

| SMILES | IC50 |
| --- | --- |
| CC(CCC(=O)NCCc1c[nH]c2ccccc12)C1CCC2C3C(O)CC4CC(O)CCC4(C)C3CCC12C (centres unmarked) [Compound 1b] | 0.3 µM |
